US6566403B1 (priority 1997, dated 2003)
Like-named read-outs stand apart in the source and are kept apart here.

Tests used:
Botrytis cinerea [1] = assay: Gray Mold on Tomato-Curative (BOC); type: in vivo; details: tomato plants, compound applied 2 days after inoculation
Protocol: Botrytis cinerea cultures were maintained on potato dextrose agar. A dextrose solution was used to wash spores from sporulating cultures. A DeVilbiss atomizer was used to apply the resulting spore suspension to tomato plants. The plants were placed in a humidity cabinet at 100% relative humidity, and the test compound was applied to the plants after 2 days. The plants were returned to the humidity cabinet for a further 3-5 days before scoring. Disease evaluations were recorded as percent disease control.

Pythium ultimum = assay: Fungitoxicity assay against Pythium ultimum (mycelial dry weight, liquid broth); type: cell-based; details: for Relative Effectiveness against Pythium ultimum: EC50 of racemic mixture divided by EC50 of the enantiomer, growth 48 hours at 25° C.
Protocol: (§1) A series of dilutions of each test compound was prepared in dimethyl sulfoxide, and 0.1 ml of each dilution was added to 19.9 ml of a liquid asparagine-sucrose broth (Erwin, D. C. and Katznelson, K., 1971, Can. J. Microbiol. 7, 15) in 9 cm diameter petri dishes to give the desired concentrations of test compound in the medium. Each plate was inoculated with a mycelial plug, 7 mm in diameter, taken from the growing edge of a culture of Pythium ultimum grown on potato dextrose agar. Two replicate plates were used for each treatment. The increase in mycelial dry weight was determined after growth for 48 hours at 25° C. with shaking on a gyrotary shaker at 60 rpm. Pythium EC50 values were calculated from dose response curves. As used herein, the terminology “EC50” means the concentration of test compound required to inhibit growth by 50% as compared to a control lacking the test compound.
(§2) In order to compare the activity of individual isomers with that of the corresponding racemic mixture, the relative effectiveness of each compound was calculated. As used herein, relative effectiveness means the EC50 value for a racemic mixture of the particular compound divided by the EC50 value for one enantiomer. The relative effectiveness of the racemic mixture itself is 1.0.

Phytophthora infestans [2] = type: in vivo; details: tomato, compound applied two days after inoculation
Phytophthora capsici = assay: Fungitoxicity assay against Phytophthora capsici (mycelial dry weight, liquid broth); type: cell-based; details: EC50 of racemic mixture divided by EC50 of the enantiomer; growth 96 h
Protocol: as §1
The procedure described above for Pythium ultimum was used except that the mycelial plugs used for inoculation were taken from the growing edge of cultures of Phytophthora capsici grown on V-8 juice agar, pH 7.0, containing 200 ml V-8 juice, 4 g CaCO3, and 20 g agar per liter, and the increase in mycelial dry weight was determined after growth for 96 h.
as §2

Phytophthora infestans [3] = type: in vivo; details: tomato seedlings, treated before inoculation, 6 days after inoculation
Plasmopara viticola [4] = assay: Grape Downy Mildew (GDM); type: in vivo; details: grape plants, treated before inoculation, scored after 7-8 days
Protocol: (§3) Cultures of Plasmopara viticola were maintained on grape seedlings derived from tissue culture. Leaves with sporulating mildew were rinsed in water to obtain the desired concentration of spores. A DeVilbiss atomizer was used to apply a suspension of spores to fungicide-treated lower leaves of the grape plants. The plants were kept in a humidity cabinet at 100% relative humidity for 24 hours and then placed in a controlled temperature chamber at 25° C. for 7-8 days before scoring. Disease evaluations were recorded as percent disease control.

Plasmopara viticola [5] = assay: Grape Downy Mildew-Curative (GDC); type: in vivo; details: compound applied two days after inoculation
Protocol: as §3
The curative properties of the test compounds were evaluated using the same procedure as that set forth above in the section entitled “GRAPE DOWNY MILDEW”, except that the test compound was applied to the plants two days after inoculation with the pathogen.

Botrytis cinerea [6] = assay: Fungitoxicity assay against Botrytis cinerea (colony diameter on agar); type: cell-based; details: EC50 of racemic mixture divided by EC50 of the enantiomer; 48 hours at 25° C.
Protocol: A series of dilutions of each test compound was prepared in dimethyl sulfoxide and 125 microliters […] of each dilution was added to 25 ml of molten potato dextrose agar to give the desired concentrations of test compound. The mixtures were poured immediately into 9 cm diameter petri dishes. Each plate was inoculated with a 7 mm diameter mycelial plug taken from the growing edge of a 5 day old culture of B. cinerea grown on potato dextrose agar.
as §2

CC[C@@](C)(NC(=O)c1cc(Cl)c(C)c(Cl)c1)C(=O)CCl [Compound 1, R enantiomer, (R)-N-(3-chloro-1-ethyl-1-methyl-2-oxopropyl)-3,5-dichloro-4-methylbenzamide]
BOC percent disease control (Botrytis cinerea [1]; 19 ppm): 0%
BOC percent disease control (Botrytis cinerea [1]; 75 ppm): 0%
BOC percent disease control (Botrytis cinerea [1]; 300 ppm): 0%
Relative Effectiveness against Pythium ultimum (Pythium ultimum): 0.037
TLC percent disease control (Phytophthora infestans [2]; 19 ppm): 0%
TLC percent disease control (Phytophthora infestans [2]; 75 ppm): 0%
TLC percent disease control (Phytophthora infestans [2]; 300 ppm): 0%
Relative Effectiveness against Phytophthora capsici (Phytophthora capsici): 0.0072
TLB percent disease control (Phytophthora infestans [3]; 19 ppm): 25%
TLB percent disease control (Phytophthora infestans [3]; 75 ppm): 50%
TLB percent disease control (Phytophthora infestans [3]; 300 ppm): 75%
GDM percent disease control (Plasmopara viticola [4]; 19 ppm): 0%
GDM percent disease control (Plasmopara viticola [4]; 75 ppm): 0%
GDM percent disease control (Plasmopara viticola [4]; 300 ppm): 0%
GDC percent disease control (Plasmopara viticola [5]; 19 ppm): 0%
GDC percent disease control (Plasmopara viticola [5]; 75 ppm): 0%
GDC percent disease control (Plasmopara viticola [5]; 300 ppm): 0%
Relative Effectiveness against Botrytis cinerea (Botrytis cinerea [6]): <0.076

CC[C@@](C)(NC(=O)c1cc(Cl)cc(Cl)c1)C(=O)CCl [Compound 2, R enantiomer]
Relative Effectiveness against Pythium ultimum (Pythium ultimum): 0.055
Relative Effectiveness against Botrytis cinerea (Botrytis cinerea [6]): 0.17

CCC(C)(NC(=O)c1cc(Cl)c(C)c(Cl)c1)C(=O)CCl (stereo not drawn) [Compound 1]
Relative Effectiveness (expected) against Pythium ultimum (Pythium ultimum; 50 % S in the Mixture of racemate and S enantiomer): 1.000
Relative Effectiveness (expected) against Pythium ultimum (Pythium ultimum; 60 % S in the Mixture of racemate and S enantiomer): 1.236
Relative Effectiveness (expected) against Pythium ultimum (Pythium ultimum; 70 % S in the Mixture of racemate and S enantiomer): 1.472
Relative Effectiveness (expected) against Pythium ultimum (Pythium ultimum; 80 % S in the Mixture of racemate and S enantiomer): 1.708
Relative Effectiveness (expected) against Pythium ultimum (Pythium ultimum; 90 % S in the Mixture of racemate and S enantiomer): 1.944
Relative Effectiveness (expected) against Pythium ultimum (Pythium ultimum; 100 % S in the Mixture of racemate and S enantiomer): 2.180

CC[C@](C)(NC(=O)c1cc(Cl)cc(Cl)c1)C(=O)CCl [Compound 2, S enantiomer]
Relative Effectiveness against Pythium ultimum (Pythium ultimum): 2.68
Relative Effectiveness against Botrytis cinerea (Botrytis cinerea [6]): 1.85

CC[C@](C)(NC(=O)c1cc(Cl)c(C)c(Cl)c1)C(=O)CCl [Compound 1, S enantiomer, (S)-N-(3-chloro-1-ethyl-1-methyl-2-oxopropyl)-3,5-dichloro-4-methylbenzamide]
BOC percent disease control (Botrytis cinerea [1]; 19 ppm): 75%
BOC percent disease control (Botrytis cinerea [1]; 75 ppm): 90%
BOC percent disease control (Botrytis cinerea [1]; 300 ppm): 95%
Relative Effectiveness against Pythium ultimum (Pythium ultimum): 2.18
TLC percent disease control (Phytophthora infestans [2]; 19 ppm): 90%
TLC percent disease control (Phytophthora infestans [2]; 75 ppm): 99%
TLC percent disease control (Phytophthora infestans [2]; 300 ppm): 95%
Relative Effectiveness against Phytophthora capsici (Phytophthora capsici): 2.13
TLB percent disease control (Phytophthora infestans [3]; 19 ppm): 90%
TLB percent disease control (Phytophthora infestans [3]; 75 ppm): 100%
TLB percent disease control (Phytophthora infestans [3]; 300 ppm): 100%
GDM percent disease control (Plasmopara viticola [4]; 19 ppm): 99%
GDM percent disease control (Plasmopara viticola [4]; 75 ppm): 100%
GDM percent disease control (Plasmopara viticola [4]; 300 ppm): 100%
GDC percent disease control (Plasmopara viticola [5]; 19 ppm): 75%
GDC percent disease control (Plasmopara viticola [5]; 75 ppm): 90%
GDC percent disease control (Plasmopara viticola [5]; 300 ppm): 99%
Relative Effectiveness against Botrytis cinerea (Botrytis cinerea [6]): 2.03

CCC(C)(NC(=O)c1cc(Cl)cc(Cl)c1)C(=O)CCl (racemic) [Compound 2, racemate]
Relative Effectiveness against Pythium ultimum (Pythium ultimum): 1.00
Relative Effectiveness against Botrytis cinerea (Botrytis cinerea [6]): 1.00

CCC(C)(NC(=O)c1cc(Cl)c(C)c(Cl)c1)C(=O)CCl (racemic) [Compound 1, racemate]
BOC percent disease control (Botrytis cinerea [1]; 19 ppm): 50%
BOC percent disease control (Botrytis cinerea [1]; 75 ppm): 75%
BOC percent disease control (Botrytis cinerea [1]; 300 ppm): 90%
Relative Effectiveness against Pythium ultimum (Pythium ultimum): 1.00
TLC percent disease control (Phytophthora infestans [2]; 19 ppm): 80%
TLC percent disease control (Phytophthora infestans [2]; 75 ppm): 90%
TLC percent disease control (Phytophthora infestans [2]; 300 ppm): 95%
Relative Effectiveness against Phytophthora capsici (Phytophthora capsici): 1.00
TLB percent disease control (Phytophthora infestans [3]; 19 ppm): 85%
TLB percent disease control (Phytophthora infestans [3]; 75 ppm): 100%
TLB percent disease control (Phytophthora infestans [3]; 300 ppm): 95%
GDM percent disease control (Plasmopara viticola [4]; 19 ppm): 99%
GDM percent disease control (Plasmopara viticola [4]; 75 ppm): 100%
GDM percent disease control (Plasmopara viticola [4]; 300 ppm): 100%
GDC percent disease control (Plasmopara viticola [5]; 19 ppm): 50%
GDC percent disease control (Plasmopara viticola [5]; 75 ppm): 50%
GDC percent disease control (Plasmopara viticola [5]; 300 ppm): 90%
Relative Effectiveness against Botrytis cinerea (Botrytis cinerea [6]): 1.00
